Reference: paper PMC3851574 (Journal of structural biology, 2013)

Biological target: T1, GCN4-Kar3Cik1 (Kar3Cik1) (Saccharomyces cerevisiae, UniProt P17119)
T1 sequence (P17119 353-729): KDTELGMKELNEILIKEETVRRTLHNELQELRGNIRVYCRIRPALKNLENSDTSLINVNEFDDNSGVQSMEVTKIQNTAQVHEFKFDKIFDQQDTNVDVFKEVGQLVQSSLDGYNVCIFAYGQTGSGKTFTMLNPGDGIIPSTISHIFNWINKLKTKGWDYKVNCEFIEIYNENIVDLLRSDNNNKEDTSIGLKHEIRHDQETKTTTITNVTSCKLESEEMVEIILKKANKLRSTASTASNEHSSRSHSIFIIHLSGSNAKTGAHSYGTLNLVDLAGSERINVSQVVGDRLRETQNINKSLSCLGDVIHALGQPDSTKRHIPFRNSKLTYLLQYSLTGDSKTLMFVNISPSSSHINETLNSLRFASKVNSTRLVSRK
T1 sequence (Q01649 344-594 partner): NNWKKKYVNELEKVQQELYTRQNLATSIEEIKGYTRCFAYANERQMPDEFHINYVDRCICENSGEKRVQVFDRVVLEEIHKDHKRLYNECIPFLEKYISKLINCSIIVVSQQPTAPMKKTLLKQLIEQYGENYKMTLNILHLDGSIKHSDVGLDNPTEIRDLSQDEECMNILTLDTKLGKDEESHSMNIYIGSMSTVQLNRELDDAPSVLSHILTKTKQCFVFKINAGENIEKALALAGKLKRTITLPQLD
Experiment: cryo-EM and unidirectional metal shadowing of microtubule decoration
Format: binding
Conditions: 1 mM ADP; bovine brain microtubules; ATPase buffer pH 7.2

Nc1ncnc2c1ncn2[C@@H]1O[C@H](COP(=O)(O)OP(=O)(O)O)[C@@H](O)[C@H]1O [ADP]
cryo-EM and unidirectional metal shadowing of microtubule decoration: Excess ADP significantly lowered the microtubule-binding affinity of Kar3Cik1 in our experiments
